The test system of one data set is A498 tumor cells. The following applies: A498, 24 h; 13 μM sorafenib or 250 nM sunitinib; normal medium control = 100%.
A further data set deals with C57BL/6 T cells. Kind of data set: Mouse mixed lymphocyte reaction (CFSE-labeled C57BL/6 spleen cells vs irradiated BALB/c splenocytes). The class given is cell-based. The following applies: sorafenib: at concentration near the steady-state plasma level of treated patients. The protocol:
CFSE-labeled spleen cells from C57BL/6 (H2-b) mice were co-cultured with irradiated splenocytes from BALB/c (H2-d) mice, resulting in the strong allogenic response and proliferation of the C57BL/6 T cells against H2-d MHC molecules. The proliferation of the T cells results in a diminished CFSE staining of the divided cells. Percentage of divided cells and their number of divisions can be analyzed by flow cytometry.
Spleen cells were prepared from 1 C57BL/6 mouse and 1 BALB/c mouse (Harlan Winkelmann GmbH, Borchen, Germany). BALB/c cells were irradiated with 33 Gy. Effectors (C57BL/6) were adjusted to 20 Mio cells/ml. A 2 mM 5(6)-Carboxyfluorescindiacetate-N-succinimidylester (CFSE, Fluka, Buchs, Switzerland) solution in PBS was freshly prepared from a 10 mM DMSO stock solution. The cell suspension was mixed 1:1 with the CFSE solution. After incubation at 37° C. for 4 min, reaction was stopped by addition of fetal calf serum (Biochrom, Berlin, Germany), and free CFSE was washed out. 2×10^5 stimulator cells (BALB/c) were plated into cavities of a 96-well round-bottom plate. 1×10^5 or 2×10^5 CFSE-labeled effector cells and tyrosine kinase inhibitors at two different concentrations were added. Appropriate positive and negative controls were included. All cultures were in 200 μl T-cell medium with 0.1% (v/v) DMSO for 5 or 7 days without further medium change. Thereafter, cells were stained with fluorescently labelled anti-CD4-PerCP and anti-CD8-FITC antibodies (both BD Biosciences, Heidelberg, Germany) and analyzed by flow cytometry.
The experiment described above was repeated with the exception that a 96-well flat-bottom plate was used for mixed lymphocyte reactions (MLRs), a syngenic control with irradiated C57BL/6 cells was included, more concentrations of inhibitors were assessed, and all groups were analyzed in triplicates.
During cultivation, half of the medium was replaced with fresh appropriate medium supplemented with final concentrations of tyrosine kinase inhibitors every day, and proliferation was analyzed at day 7 only. Additionally cells were stained for H2-Kb to clearly identify effector cells in a further dimension.

The nature of data set [1]: HPLC quantification of TKI plasma levels in mouse models. The following applies: oral dosing. The class given is in vivo.
Procedure: The proteins were precipitated with 40 μl 100% acetonitril (Acros, Geel, Belgium), centrifuged and filtered through a 0.2 μm PVDF filter. 10 μl was directly injected to the HPLC system.
The HPLC system consisted of a Binary HPLC pump (Shimadzu LC10aVP), a Shimadzu SIL-10aVP autosampler, a Shimadzu CTO-10asVP column oven and a Shimadzu SPD10aVP detector. Data acquisition and analysis was performed using the Shimadzu Class-VP 7.3 software. Chromatographic separation was carried out on a reverse phase C18 column (Reprosil Pur ODS-3μ, 60×2 mm). To protect the analytical column a guard column has been used (Reprosil Pur ODS-5μ, 10×2 mm). Eluent A consisted of water (LCMS grade, Acros, Geel, Belgium), modified by 0.1% formic acid (Merck, Darmstadt, Germany) and eluent B was 80% acetonitril (Acros, Geel, Belgium) with 0.1% formic acid (Merck, Darmstadt, Germany).
The following gradient was used: 5 min 25% eluent B, 15 min 62.5% eluent B, 6 min 80% eluent B and 5 min 80% eluent B. The temperature of the autosampler was kept at 4° C. The temperature of the column was maintained at 30° C. The detection wavelength was set at 400 nm, the injection volume was 10 μl. The column was equilibrated with the mobile phase at a flow rate 0.5 ml/min.
For Sorafenib analysis, 10 μl of 50% acetonitril (Acros, Geel, Belgium) was added to 50 serum or medium in 0.5 ml PCR tubes and mixed for 10 seconds. […]
How the values of data set [2] were obtained:
Female C57BL/6 mice (20-25 g, Harlan Winkelmann GmbH, Borchen, Germany) were used for all experiments described in this section. Animals were kept in the animal facility of the Dept. of Immunology at the University of Tuebingen. Animals were cared for by trained animal keepers and health status of animals was supervised by the veterinaries of the University of Tübingen. Feeding with drug was also performed in part by the local animal keepers after special training. All animals were supplied with water and food ad libitum. The described experiments were performed according to procedure no. IM1/06 approved by the Regierungsprasidium Tuebingen.
A liquid, viscous vehicle composed of 30% (w/v) Cremophor EL (Sigma, Deisenhofen, Germany), 30% (w/v) PEG 400 (Sigma, Deisenhofen, Germany), 10% ethanol p.a., 10% glucose was used. Sunitinib and sorafenib were suspended in vehicle according to the planned dosages in a way that […] body weight had to be applied to all mice, according to approx. 50 μl of suspension. Feasible aliquots were prepared from suspensions and from vehicle and stored until use at −20° C. in the dark. Thawed substance was stored at 4° C. and used within the next three days. Animals were weighed before start of treatment and thereafter weekly. The deduced dosage was applied daily using a 1 ml syringe with gavage into the backward cavity of the mouth of the animal without anesthesia. Drug delivery into blood plasma was controlled as described in example 1.
1) Immunization under continuous treatment with tyrosine kinase inhibitors. Pretreatment phase was two weeks (see FIG. 5A). […]
3) The experimental design was identical to a) Beside negative and positive control groups, groups treated with 60 mg/kg body weight sorafenib, and 20 and 40 mg/kg body weight sunitinib were included (6 mice per group). For spleen cells, CD4, Tregs, CD8 cells, and B cells were assessed, for PBMCs CD4, CD8, B cells and Tregs were analyzed.

The subject of data set [3] is OVA-001 specific CD8+ T-cells. The format is in vivo, C57BL/6 mice. The following applies: continuous treatment, OVA-001 immunized.
Data set [4] relates to HLA-A*02+ PBMCs (CD4+ and CD8+ effector cells). The note with it: HLA-mismatched target cells, seven days, increasing TKI concentrations. How it is done:
Two fresh buffy coat (HLA-A*02+ and HLA-A*02−) were obtained from the Katharinenhospital Stuttgart. PBMCs were isolated by standard density gradient isolation and incubated overnight in T-cell medium (TCM) for human in vitro priming as in WP03 #4. Ca2+ and Mg2+ free PBS (Cambrex) washed HLA-A*02+ PBMCs were labeled at 1×10^7 cells/ml with 1 μM CFSE (Fluka, Buchs, Germany) at 37° C. for 4 minutes. Labeling was stopped by adding the same volume heat inactivated FCS (Invitrogen) and labeled cells were washed in TCM. Irradiation of target or feeder cells, if indicated, was performed at 33 Gy using a 1000 Elite gammacell (MDS Nordion, Ottawa, Canada). Stock solutions of sorafenib tosylate and sunitinib malate were prepared in DMSO (Merck, Darmstadt, Germany) and frozen aliquoted at −80° C. Mixed lymphocyte reactions were performed by coculturing 2×10^5 CFSE labeled effector plus 2×10^5 irradiated target cells as indicated per well of 96 well round bottom plates in 200 μl TCM in the presence of indicated concentrations of sorafenib, sunitinib or DMSO at 37° C. and 5% CO2 (day 1). On day 4, 100 μl supernatant was removed and 100 μl TCM supplemented with the original concentration of TKIs was added. […] Cells were washed, fixed in PFEA containing 1% formaldehyde (Fluka) and analyzed on a FACSCalibur (BD). […]

Where two headings read alike, the source gives them in different places.

Take `CCN(CC)CCNC(=O)c1c(C)[nH]c(/C=C2\C(=O)Nc3ccc(F)cc32)c1C` [Sunitinib]: in the data set with A498 tumor cells, the “% Expression relative to control: ADFP” value was 87%, the “% Expression relative to control: APOL1” value amounted to 62%, the “% Expression relative to control: CCND1” value amounted to 93% and the “% Expression relative to control: GUCY1A3” value came out at 57%. Further, in the data set on A498 tumor cells, the “% Expression relative to control: HLA-A” value turned out to be 93%, the “% Expression relative to control: HLA-B” value stood at 76%, the “% Expression relative to control: HLA-C” value amounted to 87% and the “% Expression relative to control: MET” value was determined as 41%. Besides, in the data set on A498 tumor cells, the “% Expression relative to control: MMP7” value stood at 31%, the “% Expression relative to control: MUC1” value was 54%, the “% Expression relative to control: PSMB8” value worked out at 87% and the “% Expression relative to control: PSMB9” value is on record as 132%. For the same compound, the “% Expression relative to control: TAP1” value in the data set with A498 tumor cells is on record as 123%. Besides, the “Drug-related toxicity for cells in mixed lymphocyte reactions (summary)” value in the data set with C57BL/6 T cells is given as “no drug-related toxicity was observed”. The “Bioavailability / plasma levels at the used doses” value in data set [1] was “confirmed to reach plasma levels shown by others to be effective in tumor growth inhibition”. For the same compound, the Deaths in data set [2] (80 mg/kg sunitinib, experiment one) is 2 out of 6. Further, in data set [2] (mouse, in vivo), the “Inflamed lesions of injections sites” value is listed as “frequently observed”. In data set [3] (20 mg/kg bw, n=12), the “OVA-001 specific CD8+ T-cells, mean” value was 3.47%. Further, the “OVA-001 specific CD8+ T-cells, mean” value in data set [3] (40 mg/kg bw, n=6) turned out to be 2.73%. In addition, in data set [3] (80 mg/kg bw, n=2), the “OVA-001 specific CD8+ T-cells, mean” value is reported as 0.51%. Besides, the “Proliferation of CD8+ and CD4+ effector cells” value in data set [4] is listed as “No effect”.

(Values after US9308244B2, “Combination therapy using active immunotherapy” (immatics Biotechnologies GmbH, priority 2007, dated 2016).)
